Target: T1, EP4 (Homo sapiens, UniProt P35408)
T1 construct: host or cells: HEK293, stably transfected; also expresses a promiscuous G protein and a clytin variant
Experiment: EP4 Ca2+-flux assay (functional calcium flux assay, stably transfected HEK293 cells)
Assay type: cell-based
Settings: HEK293 cells stably transfected with EP4; ligand PGE2 10 nM; luminescence readout
Experimental: The compounds in the present disclosure were tested in a functional calcium flux assay using stably transfected HEK293 cells. Cells transfected with EP1, EP2, EP3 and EP4 were purchased from Eurofins Discovery Services (St. Charles, Mo.). Each receptor subtype has an additional promiscuous G protein added in order to couple to the calcium signaling pathway. The parental cell line used also expresses a novel variant of clytin, a calcium-activated photo-protein, to enable sensitive luminescent detection.
Cells were plated at 50,000 cells per well in black, clear bottom 96-well plates. The plated cells were allowed to sit at room temperature for 30 min prior to transferring to a humidified, 37° C., 5% CO2 incubator for 18-24 h. Assay buffer (HBSS with 20 mM HEPES) and loading buffer (assay buffer plus 10 μM Coelenterazine) were prepared on the day of the assay. Assays were performed by aspirating media from the assay plate and washing once with assay buffer, then replacing with loading buffer and allowing the cells to incubate for 1.5 h at room temperature. Compounds were prepared in assay buffer at a 3× final concentration in non-binding plates. Compounds were added to the cell plates and incubated for 30 min at room temperature. The prostanoid receptor ligand PGE2 was prepared at a 4× dilution ratio for a final concentration of 10 nM. Plates were run on a Flexstation™ using a 100 ms integration luminescence protocol for a total of 60 sec with ligand addition at 15 sec. Data were obtained from relative light units as measured by area under the curve.

T1 sequence (P35408 whole entry): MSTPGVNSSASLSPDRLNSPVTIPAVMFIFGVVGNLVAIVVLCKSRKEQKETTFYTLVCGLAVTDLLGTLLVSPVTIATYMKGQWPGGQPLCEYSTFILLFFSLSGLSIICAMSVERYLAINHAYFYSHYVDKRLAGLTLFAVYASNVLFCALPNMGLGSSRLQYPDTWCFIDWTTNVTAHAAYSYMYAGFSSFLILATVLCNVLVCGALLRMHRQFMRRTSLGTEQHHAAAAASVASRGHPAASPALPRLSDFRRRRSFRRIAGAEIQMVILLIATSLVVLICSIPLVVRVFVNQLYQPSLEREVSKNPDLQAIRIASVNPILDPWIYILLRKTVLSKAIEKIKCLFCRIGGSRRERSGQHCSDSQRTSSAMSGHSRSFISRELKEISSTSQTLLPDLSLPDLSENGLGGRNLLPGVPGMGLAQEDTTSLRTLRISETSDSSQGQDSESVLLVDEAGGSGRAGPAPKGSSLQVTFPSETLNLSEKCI

Row | SMILES | IC50
1 | O=C(CC12CC(NC(=O)c3cccc4ccn(Cc5ccc(C(F)(F)F)cc5)c34)(C1)C2)NS(=O)(=O)c1ccccc1 [Example 16, N-(3-(2-oxo-2-(phenylsulfonamido)ethyl)bicyclo[1.1.1]pentan-1-yl)-1-(4-(trifluoromethyl)benzyl)-1H-indole-7-carboxamide] | 140 nM
2 | O=C(NC1CC2(C1)CC(C(=O)O)C2)c1nccc2ccn(Cc3ccc(C(F)(F)F)cc3)c12 (racemic) [Example 11, rac-6-(1-(4-(trifluoromethyl)benzyl)-1H-pyrrolo[2,3-c]pyridine-7-carboxamido)spiro[3.3]heptane-2-carboxylic Acid] | 24 nM
3 | O=C(O)CC12CC(NC(=O)c3ccnc4ccn(Cc5ccc(C(F)(F)F)cc5)c34)(C1)C2 [Example 3, 2-(3-(1-(4-(trifluoromethyl)benzyl)-1H-pyrrolo[3,2-b]pyridine-7-carboxamido)bicyclo[1.1.11]pentan-1-yl)acetic Acid] | 160 nM
4 | O=C(NC1CC2(C1)CC(C(=O)O)C2)c1cccc2cnn(Cc3ccc(C(F)(F)F)cc3)c12 (racemic) [Example 12, rac-6-(1-(4-(trifluoromethyl)benzyl)-1H-indazole-7-carboxamido)spiro[3.3]heptane-2-carboxylic Acid] | 2.7 nM
5 | O=C(NCC12CC(NC(=O)c3cccc4ccn(Cc5ccc(C(F)(F)F)cc5)c34)(C1)C2)NS(=O)(=O)c1ccccc1 [Example 17, N-(3-((3-(phenylsulfonyl)ureido)methyl)bicyclo[1.1.1]pentan-1-yl)-1-(4-(trifluoromethyl)benzyl)-1H-indole-7-carboxamide] | 130 nM
6 | O=C(NC1CC2(C1)CC(C(=O)O)C2)c1ccnc2ccn(Cc3ccc(C(F)(F)F)cc3)c12 (racemic) [Example 9, rac-6-(1-(4-(trifluoromethyl)benzyl)-1H-pyrrolo[3,2-b]pyridine-7-carboxamido) spiro[3.3]heptane-2-carboxylic Acid] | 6 nM
7 | N#Cc1ccc(Cn2ccc3cccc(C(=O)NC45CC(CC(=O)O)(C4)C5)c32)cc1 [Example 1, 2-(3-(1-(4-cyanobenzyl)-1H-indole-7-carboxamido)bicyclo[1.1.1]pentan-1-yl) acetic Acid] | 13 nM
8 | O=C(O)CC12CC(NC(=O)c3cccc4cnn(Cc5ccc(C(F)(F)F)cc5)c34)(C1)C2 [Example 6, 2-(3-(1-(4-(trifluoromethyl)benzyl)-1H-indazole-7-carboxamido)bicyclo[1.1.1]pentan-1-yl)acetic Acid] | 19 nM
9 | O=C(O)CC12CCC(NC(=O)c3cccc4ccn(Cc5ccc(C(F)(F)F)cc5)c34)(C1)C2 [Example 19, 2-(4-(1-(4-(trifluoromethyl)benzyl)-1H-indole-7-carboxamido)bicyclo[2.1.1]hexan-1-yl)acetic Acid] | 9.1 nM
10 | O=C(O)CC12CC(NC(=O)c3nccc4ccn(Cc5ccc(C(F)(F)F)cc5)c34)(C1)C2 [Example 5, 2-(3-(1-(4-(trifluoromethyl)benzyl)-1H-pyrrolo[2,3-c]pyridine-7-carboxamido)bicyclo[1.1.1]pentan-1-yl)acetic Acid] | 930 nM
11 | [2H]C([2H])(c1ccc(C(F)(F)F)cc1)n1ccc2cccc(C(=O)NC34CC(CC(=O)O)(C3)C4)c21 [Example 7, 2-(3-(1-((4-(trifluoromethyl)phenyl)methyl-d2)-1H-indole-7-carboxamido)bicyclo[1.1.1]pentan-1-yl)acetic Acid] | 2 nM
12 | CC1(NC(=O)c2cccc3ccn(Cc4ccc(C(F)(F)F)cc4)c23)CC(CCC(=O)O)C1 (stereo not drawn) [Example 15, cis-3-(3-methyl-3-(1-(4-(trifluoromethyl)benzyl)-1H-indole-7-carboxamido)cyclobutyl)propanoic Acid] | 400 nM
13 | O=C(O)CC12CCC(NC(=O)c3cccc4ccn(Cc5ccc(C(F)F)cc5)c34)(C1)C2 [Example 26, 2-(4-(1-(4-(difluoromethyl)benzyl)-1H-indole-7-carboxamido)bicyclo[2.1.1]hexan-1-yl)acetic Acid] | 3.8 nM
14 | O=C(O)C[C@]12C[C@](NC(=O)c3cccc4cnn(Cc5ccc(OC(F)(F)F)cc5)c34)(C1)C2 [Example 37, 2-(3-(1-(4-(trifluoromethoxy)benzyl)-1H-indazole-7-carboxamido)bicyclo[1.1.1]pentan-1-yl)acetic Acid] | 75 nM
15 | N#Cc1ccc(Cn2ccc3cccc(C(=O)NC4CC5(C4)CC(C(=O)O)C5)c32)cc1 (racemic) [Example 24, rac-6-(1-(4-cyanobenzyl)-1H-indole-7-carboxamido)spiro[3.3]heptane-2-carboxylic Acid] | 10 nM
16 | O=C(NC12CC(Cc3nnn[nH]3)(C1)C2)c1cccc2ccn(Cc3ccc(C(F)(F)F)cc3)c12 [Example 18, N-(3-((1H-tetrazol-5-yl)methyl)bicyclo[1.1.1]pentan-1-yl)-1-(4-(trifluoromethyl)benzyl)-1H-indole-7-carboxamide] | 1.5 nM
17 | O=C(NC1CC2(C1)CC(C(=O)O)C2)c1cccc2ncn(Cc3ccc(C(F)(F)F)cc3)c12 (racemic) [Example 13, rac-6-(1-(4-(trifluoromethyl)benzyl)-1H-benzo[d]imidazole-7-carboxamido) spiro[3.3]heptane-2-carboxylic Acid] | 32 nM

Second part, the molecule after the results:

Row | IC50 | SMILES
18 | 0.3 nM | O=C(NC1CC2(C1)CC(C(=O)O)C2)c1c(F)ccc2ccn(Cc3ccc(C(F)(F)F)cc3)c12 (racemic) [Example 23, rac-6-(6-fluoro-1-(4-(trifluoromethyl)benzyl)-1H-indole-7-carboxamido)spiro heptane-2-carboxylic Acid]
19 | 0.22 nM | O=C(O)C[C@]12C[C@](NC(=O)c3cccc4ccn(Cc5ccc(-c6ccccc6)cc5)c34)(C1)C2 [Example 34, 2-(3-(1-([1,1′-biphenyl]-4-ylmethyl)-1H-indole-7-carboxamido)bicyclo[1.1.1]pentan-1-yl)acetic Acid]
20 | 0.31 nM | O=C(NC1CC2(C1)CC(C(=O)O)C2)c1cc(F)cc2ccn(Cc3ccc(C(F)(F)F)cc3)c12 (racemic) [Example 21, rac-6-(5-fluoro-1-(4-(trifluoromethyl)benzyl)-1H-indole-7-carboxamido)spiro heptane-2-carboxylic Acid]
21 | 0.4 nM | O=C(NC1CC2(C1)CC(C(=O)O)C2)c1cccc2ccn(Cc3ccc(C(F)F)cc3)c12 (racemic) [Example 25, rac-6-(1-(4-(difluoromethyl)benzyl)-1H-indole-7-carboxamido)spiro[3.3] heptane-2-carboxylic Acid]
22 | 1.5 nM | O=C(O)CC12CC(NC(=O)c3cccc4ccn(Cc5ccc(C(F)(F)F)cc5)c34)(C1)C2 [Example 2, 2-(3-(1-(4-(trifluoromethyl)benzyl)-1H-indole-7-carboxamido)bicyclo[1.1.1]pentan-1-yl)acetic Acid]
23 | 0.28 nM | O=C(O)C[C@]12C[C@](NC(=O)c3ccc(F)c4ccn(Cc5ccc(-c6ccccc6)cc5)c34)(C1)C2 [Example 35, 2-(3-(1-([1,1′-biphenyl]-4-ylmethyl)-4-fluoro-1H-indole-7-carboxamido)bicyclo[1.1.11]pentan-1-yl)acetic Acid]
24 | 0.1 nM | O=C(O)C[C@]12C[C@](NC(=O)c3cc(F)cc4ccn(Cc5ccc(C(F)(F)F)cc5)c34)(C1)C2 [Example 33, 2-(3-(5-fluoro-1-(4-(trifluoromethyl)benzyl)-1H-indole-7-carboxamido)bicyclopentan-1-yl)acetic Acid]
25 | 0.2 nM | O=C(NC1CC2(C1)CC(C(=O)O)C2)c1cccc2ccn(Cc3ccc(S(F)(F)(F)(F)F)cc3)c12 (racemic) [Example 30, rac-6-(1-((4-(pentafluorothiol)phenyl)methyl)-1H-indole-7-carboxamido)spiro heptane-2-carboxylic Acid]
26 | 0.6 nM | O=C(O)CC12CCC(NC(=O)c3ccc(F)c4ccn(Cc5ccc(C(F)(F)F)cc5)c34)(C1)C2 [Example 28, 2-(4-(4-fluoro-1-(4-(trifluoromethyl)benzyl)-1H-indole-7-carboxamido)bicyclohexan-1-yl)acetic Acid]
27 | 0.32 nM | O=C(O)C[C@]12C[C@](NC(=O)c3cccc4cnn(Cc5ccc(-c6ccccc6)cc5)c34)(C1)C2 [Example 36, 2-(3-(1-([1,1′-biphenyl]-4-ylmethyl)-1H-indazole-7-carboxamido)bicyclo[1.1.1]pentan-1-yl)acetic Acid]
28 | 0.1 nM | O=C(O)C[C@]12C[C@](NC(=O)c3ccc(F)c4ccn(Cc5ccc(C(F)F)cc5)c34)(C1)C2 [Example 32, 2-(3-(1-(4-(difluoromethyl)benzyl)-4-fluoro-1H-indole-7-carboxamido)bicyclopentan-1-yl)acetic Acid]
29 | 0.03 nM | O=C(NC1CC2(C1)CC(C(=O)O)C2)c1ccc(F)c2ccn(Cc3ccc(C(F)F)cc3)c12 (racemic) [Example 31, rac-6-(1-(4-(difluoromethyl)benzyl)-4-fluoro-1H-indole-7-carboxamido)spiro heptane-2-carboxylic Acid]
30 | 1.2 nM | O=C(O)CC12CCC(NC(=O)c3cccc4ccn(Cc5ccc(S(F)(F)(F)(F)F)cc5)c34)(C1)C2 [Example 29, 2-(4-(1-((4-(pentafluorothiol)phenyl)methyl)-1H-indole-7-carboxamido)bicyclohexan-1-yl)acetic Acid]
